Residues, ends and D or L forms follow the SMILES beside them. *: point of attachment. Palmitoyl = CCCCCCCCCCCCCCCC(=O)*
What was measured:
TRPV6 R470A = assay: NFAT screen, TRPV6 R470A; format: cell-based, human; conditions: HEK293 cells; 5 μM cis-22a, 2 h, vs DMSO
Protocol: (§1) N-terminally TagRFP-labeled human TRPV6 (725 aa) was kindly provided by R. Bhardwaj and M. Hediger (University of Bern, Bern, Switzerland). This variant is translated from the first ATG codon and thus deviates from the non-ATG-initiated protein which is expressed in vivo (accession number NM_018646.6) by lacking 40 amino acids of the very N-terminus. For N-terminal labeling with EYFP, TRPV6 was cloned into pEYFP-C1 (Clontech) via EcoRI and SacII restriction sites. […]
(§2) After incubation, cover slips were carefully rinsed with phenol red-free DMEM supplemented with the compound and dosage corresponding to the previous incubation, which was then also present during imaging. […] Subcellular NFAT localization of TRPV6 expressing cells was again monitored on an Axiovert 135 inverted microscope (Zeiss, Oberkochen, Germany), as described in more detail before. […] Images were analyzed using Matlab2018a, differentiating between three cell populations based on the ratio of CFP emission intensity originating from the nucleus and the cytosol, similar to Schober et al. (2019).

TRPV6 W583A = assay: NFAT screen, TRPV6 W583A; format: cell-based, human; conditions: HEK293 cells; 5 μM cis-22a, 2 h, vs DMSO; analysable cells hardly present
Protocol: as §1, §2

TRPV6 R492Q = assay: NFAT screen, TRPV6 R492Q; format: cell-based, human; conditions: HEK293 cells; 5 μM cis-22a, 2 h, vs DMSO
Protocol: as §1, §2

TRPV6 G579A = assay: NFAT screen, TRPV6 G579A; format: cell-based, human; conditions: HEK293 cells; 5 μM cis-22a, 2 h; homogeneous localization preferred already without cis-22a
Protocol: as §1, §2

TRPV6 F468A = assay: NFAT screen, TRPV6 F468A; format: cell-based, human; conditions: HEK293 cells; 5 μM cis-22a, 2 h; nuclear NFAT already reduced without cis-22a
Protocol: as §1, §2

TRPV6 G488R [1] = conditions: ref [62]; cited from earlier work
From the text: As mentioned before, the G488R mutation resides within the segment linking the fourth and fifth transmembrane domain of TRPV6. Importantly, different examples exist throughout the entire TRP superfamily, highlighting the importance of the corresponding protein section for a proper channel function, for instance, by serving as a binding site for different agonists or antagonists.

TRPV6 D580K [2] = assay: NFAT screen, TRPV6 D580K; format: cell-based, human; conditions: HEK293 cells; 5 μM cis-22a, 2 h, vs DMSO
Protocol: as §1, §2

TRPV6 R470A W583F = assay: NFAT screen, TRPV6 R470A W583F; format: cell-based, human; conditions: HEK293 cells; 5 μM cis-22a, 2 h
Protocol: as §1, §2

TRPV6 D580K [3] = system: TRPV6 D580K; design: method as in PMID 33246965; conditions: HEK293 cells; 0.1 μM and 10 μM cis-22a; Figure 5B; ref [47]; cited from earlier work
TRPV6 G488R [4] = assay: Fura-2 Ca2+ imaging, TRPV6 G488R; format: cell-based, human; conditions: HEK293 cells; 20 μM pal-PIP2 peptide; 2 mM Ca2+; Figure 2A

| Compound | reduction of nuclear NFAT localization (TRPV6 R470A) | change of nuclear NFAT localization (TRPV6 W583A) | reduction of nuclear NFAT localization (TRPV6 R492Q) | change of nuclear NFAT localization (TRPV6 G579A) | reduction of nuclear NFAT localization (TRPV6 F468A) | sensitivity to cis-22a (in words) (TRPV6 G488R [1]) | change of nuclear NFAT localization (TRPV6 D580K [2]) | NFAT localization patterns (TRPV6 R470A W583F) | response to cis-22a vs TRPV6 WT (TRPV6 D580K [3]) | reduction of intracellular Ca2+ level (TRPV6 G488R [4]) |
| --- | --- | --- | --- | --- | --- | --- | --- | --- | --- | --- |
| Cc1cccc(C2CCC(N3CCN(c4cccnc4)CC3)CC2)c1.O=C(O)C(F)(F)F (stereo not drawn) [cis-22a] | failed to significantly reduce NFAT nuclear localization | nuclear NFAT localization was higher for cis-22a-treated cells compared to the DMSO control | failed to significantly reduce NFAT nuclear localization | further significant reduction in the proportion of cells showing nucleus-resident NFAT | further significant reduction in nucleus-targeted NFAT | largely insensitive | not significantly changed | unable to change localization patterns | significantly reduced response |  |
| CCCCCCCCCCCCCCCC(=O)N[C@@H](Cc1c[nH]cn1)C(=O)N[C@@H](CCCNC(=N)N)C(=O)N[C@@H](CCC(N)=O)C(=O)N[C@@H](CCCCN)C(=O)N[C@@H](Cc1c[nH]cn1)C(=O)N[C@@H](Cc1ccccc1)C(=O)N[C@@H](CCC(=O)O)C(=O)N[C@@H](CCCCN)C(=O)N[C@@H](CCCNC(=N)N)C(=O)N[C@@H](CCCNC(=N)N)C(N)=O [pal-PIP2 peptide] (Palmitoyl-HRQKHFEKRR-NH2) |  |  |  |  |  |  |  |  |  | ~ 2% |
